Source: patent US20240368173A1, “TRICYCLIC GPR65 MODULATORS” (PATHIOS THERAPEUTICS LIMITED, priority 2021, published 2024)
Where two headings read alike, the source gives them in different places.

Molecular target: human recombinant GPR65 (Homo sapiens, UniProt Q8IYL9)
Experiment: Human GPR65 cAMP HTRF antagonist assay
Assay type: cell-based
Method in brief: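 1321N1 astrocytoma cells stably expressing hrGPR65, with IBMX and EDTA, were preincubated with compound 30 min at room temperature, then acid-activated at assay pH 7.2 (control pH 7.9) for 30 min. cAMP read by HTRF (665/620 nm ratio); IC50 from 4-parameter fit normalised to high/low controls.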

Sequence of human recombinant GPR65 (Q8IYL9 whole entry): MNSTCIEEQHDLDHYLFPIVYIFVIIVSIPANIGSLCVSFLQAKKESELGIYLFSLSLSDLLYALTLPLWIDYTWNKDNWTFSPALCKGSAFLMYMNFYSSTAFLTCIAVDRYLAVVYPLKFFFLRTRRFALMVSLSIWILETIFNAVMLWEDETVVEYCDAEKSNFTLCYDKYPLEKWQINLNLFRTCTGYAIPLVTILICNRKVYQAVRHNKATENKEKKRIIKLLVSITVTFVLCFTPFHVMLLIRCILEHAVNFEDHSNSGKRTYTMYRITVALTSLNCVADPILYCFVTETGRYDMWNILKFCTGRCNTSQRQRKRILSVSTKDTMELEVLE

O=C(Nc1cc(Cl)c(-c2cnc(F)c(F)c2)cc1F)N1[C@H]2CC[C@@H]1c1c[nH]c(=O)cc1C2 [Compound 261, (6S,9R)-N-(5-Chloro-4-(5,6-difluoropyridin-3-yl)-2-fluorophenyl)-3-oxo-3,5,6,7,8,9-hexahydro-2H-6,9-epiminocyclohepta[c]pyridine-10-carboxamide]
IC50: < 500 nM

CC(=O)Nc1ccc(-c2cc(F)c(NC(=O)N3[C@H]4CC[C@@H]3c3n[nH]c(=O)cc3C4)cc2Cl)cn1 [Compound 117, (6S,9R)-N-(4-(6-Acetamidopyridin-3-yl)-5-chloro-2-fluorophenyl)-3-oxo-3,5,6,7,8,9-hexahydro-2H-6,9-epiminocyclohepta[c]pyridazine-10-carboxamide]
IC50 (1321N1-hrGPR65 cells, cAMP HTRF, assay pH 7.2, read-out: hGPR65 IC50 (Activity of selected compounds according to the invention)): 500 to 5000 nM

COc1cncc(-c2cc(F)c(NC(=O)N3[C@H]4CC[C@@H]3c3c[nH]c(=O)cc3C4)cc2Cl)c1 [Compound 249, (6S,9R)-N-(5-Chloro-2-fluoro-4-(5-methoxypyridin-3-yl)phenyl)-3-oxo-3,5,6,7,8,9-hexahydro-2H-6,9-epiminocyclohepta[c]pyridine-10-carboxamide]
IC50: < 500 nM

O=C(Nc1ccc(Cl)c(Cl)c1)N1C2CCC1c1n[nH]c(=O)cc1C2 (racemic) [Compound 75, (±)-N-(3,4-Dichlorophenyl)-3-oxo-3,5,6,7,8,9-hexahydro-2H-6,9-epiminocyclohepta[c]pyridazine-10-carboxamide]
IC50: < 500 nM

O=C(Nc1cc(Cl)c(-c2cnc3nonc3c2)cc1F)N1[C@H]2CC[C@@H]1c1n[nH]c(=O)cc1C2 [Compound 165, (6S,9R)-N-(4-([1,2,5]Oxadiazolo[3,4-b]pyridine-6-yl)-5-chloro-2-fluorophenyl)-3-oxo-3,5,6,7,8,9-hexahydro-2H-6,9-epiminocyclohepta[c]pyridazine-10-carboxamide]
IC50: < 500 nM

COCCCOc1cnc(F)c2c1[C@H]1CC[C@@H](C2)N1C(=O)Nc1cc(Cl)c(Cl)cc1F [Compound 105, (5R,8S)—N-(4,5-Dichloro-2-fluorophenyl)-1-fluoro-4-(3-methoxypropoxy)-6,7,8,9-tetrahydro-5H-5,8-epiminocyclohepta[c]pyridine-10-carboxamide]
IC50: < 500 nM

O=C(Nc1cc(Cl)c(-c2ccc3nonc3c2F)cc1F)N1[C@H]2CC[C@@H]1c1n[nH]c(=O)cc1C2 [Compound 327, (6S,9R)-N-(5-Chloro-2-fluoro-4-(4-fluorobenzo[c][1,2,5]oxadiazol-5-yl)phenyl)-3-oxo-3,5,6,7,8,9-hexahydro-2H-6,9-epiminocyclohepta[c]pyridazine-10-carboxamide]
IC50: < 500 nM

CO[C@H]1C[C@@H](Oc2ccc(-c3cc(F)c(NC(=O)N4[C@H]5CC[C@@H]4c4n[nH]c(=O)cc4C5)cc3Cl)cn2)C1 [Compound 304, (6S,9R)-N-(5-Chloro-2-fluoro-4-(6-((1s,3S)-3-methoxycyclobutoxy)pyridin-3-yl)phenyl)-3-oxo-3,5,6,7,8,9-hexahydro-2H-6,9-epiminocyclohepta[c]pyridazine-10-carboxamide]
IC50: < 500 nM

O=C(Nc1cc(Cl)c(Cl)cc1F)N1[C@H]2CC[C@@H]1c1n[nH]c(=O)cc1C2 [Compound 20, (6S,9R)-N-(4,5-Dichloro-2-fluorophenyl)-3-oxo-3,5,6,7,8,9-hexahydro-2H-6,9-epiminocyclohepta[c]pyridazine-10-carboxamide]
IC50: < 500 nM

O=C(Nc1ccccc1)c1cc(F)c(NC(=O)N2[C@H]3CC[C@@H]2c2n[nH]c(=O)cc2C3)cc1Cl [Compound 231, (6S,9R)—N-(5-Chloro-2-fluoro-4-(phenylcarbamoyl)phenyl)-3-oxo-3,5,6,7,8,9-hexahydro-2H-6,9-epiminocyclohepta[c]pyridazine-10-carboxamide]
IC50: 500 to 5000 nM

O=C(Nc1cc(Br)c(Cl)cc1F)N1[C@@H]2CC[C@H]1c1n[nH]c(=O)cc1C2 [Compound 38, (6R,9S)-N-(5-Bromo-4-chloro-2-fluorophenyl)-3-oxo-3,5,6,7,8,9-hexahydro-2H-6,9-epiminocyclohepta[c]pyridazine-10-carboxamide]
IC50: 500 to 5000 nM

O=C(Nc1cc(Cl)c(-c2ccc(OC3CC3)nc2)cc1F)N1[C@H]2CC[C@@H]1c1n[nH]c(=O)cc1C2 [Compound 221, (6S,9R)-N-(5-Chloro-4-(6-cyclopropoxypyridin-3-yl)-2-fluorophenyl)-3-oxo-3,5,6,7,8,9-hexahydro-2H-6,9-epiminocyclohepta[c]pyridazine-10-carboxamide]
IC50: < 500 nM

O=C(Nc1cc(Cl)c(-c2ccnc(OCC(F)(F)F)c2)cc1F)N1[C@H]2CC[C@@H]1c1c[nH]c(=O)cc1C2 [Compound 309, (6S,9R)-N-(5-Chloro-2-fluoro-4-(2-(2,2,2-trifluoroethoxy)pyridin-4-yl)phenyl)-3-oxo-3,5,6,7,8,9-hexahydro-2H-6,9-epiminocyclohepta[c]pyridine-10-carboxamide]
IC50: < 500 nM

O=C(Nc1ccc(Br)c(Cl)c1)N1[C@H]2CC[C@@H]1c1n[nH]c(=O)cc1C2 [Compound 39, (6S,9R)-N-(4-Bromo-3-chlorophenyl)-3-oxo-3,5,6,7,8,9-hexahydro-2H-6,9-epiminocyclohepta[c]pyridazine-10-carboxamide]
IC50: < 500 nM

O=C(Nc1cc(Cl)c(-c2ccc(OC3CCC3)nc2)cc1F)N1[C@H]2CC[C@@H]1c1n[nH]c(=O)cc1C2 [Compound 216, (6S,9R)-N-(5-Chloro-4-(6-cyclobutoxypyridin-3-yl)-2-fluorophenyl)-3-oxo-3,5,6,7,8,9-hexahydro-2H-6,9-epiminocyclohepta[c]pyridazine-10-carboxamide]
IC50: < 500 nM

O=C(Nc1ccc(-c2nnc(C(F)(F)F)s2)cc1)N1[C@H]2CC[C@@H]1c1ccnc(F)c1C2 [Compound 66, (5R,8S)-1-Fluoro-N-(4-(5-(trifluoromethyl)-1,3,4-thiadiazol-2-yl)phenyl)-6,7,8,9-tetrahydro-5H-5,8-epiminocyclohepta[c]pyridine-10-carboxamide]
IC50: < 500 nM

O=C(Nc1cc(Cl)c(-c2ccc3nsnc3c2)cc1F)N1[C@H]2CC[C@@H]1c1n[nH]c(=O)cc1C2 [Compound 168, (6S,9R)-N-(4-(Benzo[c][1,2,5]thiadiazol-5-yl)-5-chloro-2-fluorophenyl)-3-oxo-3,5,6,7,8,9-hexahydro-2H-6,9-epiminocyclohepta[c]pyridazine-10-carboxamide]
IC50: < 500 nM

COc1cc(-c2cc(F)c(NC(=O)N3[C@H]4CC[C@@H]3c3n[nH]c(=O)cc3C4)cc2Cl)ccn1 [Compound 199, (6S,9R)-N-(5-Chloro-2-fluoro-4-(2-methoxypyridin-4-yl)phenyl)-3-oxo-3,5,6,7,8,9-hexahydro-2H-6,9-epiminocyclohepta[c]pyridazine-10-carboxamide]
IC50: < 500 nM

COc1ccc(-c2cc(F)c(NC(=O)N3[C@H]4CC[C@@H]3c3n[nH]c(=O)cc3C4)cc2Cl)c(F)n1 [Compound 202, (6S,9R)-N-(5-Chloro-2-fluoro-4-(2-fluoro-6-methoxypyridin-3-yl)phenyl)-3-oxo-3,5,6,7,8,9-hexahydro-2H-6,9-epiminocyclohepta[c]pyridazine-10-carboxamide]
IC50: < 500 nM

O=C(Nc1cc(-c2ccccc2)on1)N1[C@H]2CC[C@@H]1c1n[nH]c(=O)cc1C2 [Compound 166, (6S,9R)-3-Oxo-N-(5-phenylisoxazol-3-yl)-3,5,6,7,8,9-hexahydro-2H-6,9-epiminocyclohepta[c]pyridazine-10-carboxamide]
IC50: < 500 nM

O=C(Nc1cc(Cl)c(-c2ccc3cnoc3c2)cc1F)N1[C@H]2CC[C@@H]1c1n[nH]c(=O)cc1C2 [Compound 196, (6S,9R)-N-(4-(Benzo[d]isoxazol-6-yl)-5-chloro-2-fluorophenyl)-3-oxo-3,5,6,7,8,9-hexahydro-2H-6,9-epiminocyclohepta[c]pyridazine-10-carboxamide]
IC50: 500 to 5000 nM

CS(=O)(=O)c1ccc(-c2cc(F)c(NC(=O)N3[C@H]4CC[C@@H]3c3n[nH]c(=O)cc3C4)cc2Cl)cc1F [Compound 132, (6S,9R)-N-(2-Chloro-3′,5-difluoro-4′-(methylsulfonyl)-[1,1′-biphenyl]-4-yl)-3-oxo-3,5,6,7,8,9-hexahydro-2H-6,9-epiminocyclohepta[c]pyridazine-10-carboxamide]
IC50: < 500 nM

COc1ccc(-c2cc(F)c(NC(=O)N3[C@H]4CC[C@@H]3c3n[nH]c(=O)cc3C4)cc2F)cn1 [Compound 247, (6S,9R)-N-(2,5-Difluoro-4-(6-methoxypyridin-3-yl)phenyl)-3-oxo-3,5,6,7,8,9-hexahydro-2H-6,9-epiminocyclohepta[c]pyridazine-10-carboxamide]
IC50: < 500 nM

O=C(Nc1cc(Cl)c(COc2ccc(F)nc2)cc1F)N1[C@H]2CC[C@@H]1c1n[nH]c(=O)cc1C2 [Compound 293, (6S,9R)-N-(5-Chloro-2-fluoro-4-(((6-fluoropyridin-3-yl)oxy)methyl)phenyl)-3-oxo-3,5,6,7,8,9-hexahydro-2H-6,9-epiminocyclohepta[c]pyridazine-10-carboxamide]
IC50: < 500 nM

O=C(Nc1cc(Cl)c(-c2cc3nonc3cc2F)cc1F)N1[C@H]2CC[C@@H]1c1n[nH]c(=O)cc1C2 [Compound 326, (6S,9R)-N-(5-Chloro-2-fluoro-4-(6-fluorobenzo[c][1,2,5]oxadiazol-5-yl)phenyl)-3-oxo-3,5,6,7,8,9-hexahydro-2H-6,9-epiminocyclohepta[c]pyridazine-10-carboxamide]
IC50: < 500 nM

O=C(Nc1cc(-c2ccc3nonc3c2)c(C(F)(F)F)cc1F)N1[C@H]2CC[C@@H]1c1ccnc(F)c1C2 [Compound 253, (5R,8S)-N-(5-(benzo[c][1,2,5]oxadiazol-5-yl)-2-fluoro-4-(trifluoromethyl)phenyl)-1-fluoro-6,7,8,9-tetrahydro-5H-5,8-epiminocyclohepta[c]pyridine-10-carboxamide]
IC50: < 500 nM

CC(C)Oc1ccc(-c2cc(F)c(NC(=O)N3[C@H]4CC[C@@H]3c3c[nH]c(=O)cc3C4)cc2Cl)cn1 [Compound 273, (6S,9R)-N-(5-Chloro-2-fluoro-4-(6-isopropoxypyridin-3-yl)phenyl)-3-oxo-3,5,6,7,8,9-hexahydro-2H-6,9-epiminocyclohepta[c]pyridine-10-carboxamide]
IC50: < 500 nM
